Results taken from the supplement of paper PMC13380429.

Tests used:
Details in all cases: 72 h
[1] = system: Caco-2; assay: cell viability relative to DMSO; higher = less toxic
[2] = system: Calu-3; assay: as above
[3] = system: HepG2; assay: as above
[4] = system: U2OS; assay: as above
[5] = system: Vero E6; assay: as above
[6] = system: Caco-2; assay: relative viability EC50 (midpoint between 100% and the lowest measured viability); higher = less toxic
[7] = system: Calu-3; assay: as above
[8] = system: HepG2; assay: as above
[9] = system: U2OS; assay: as above
[10] = system: Vero E6; assay: as above
[11] = system: Caco-2; assay: drug sensitivity score (DSS) for viability; higher = more toxic; extreme values may be limits of the assay
[12] = system: Calu-3; assay: as above
[13] = system: HepG2; assay: as above
[14] = system: U2OS; assay: as above
[15] = system: Vero E6; assay: as above

Compound | cell viability ([1]; 1 nM) [%] | cell viability ([1]; 10 nM) [%] | cell viability ([1]; 100 nM) [%] | cell viability ([1]; 1000 nM) [%] | cell viability ([1]; 10000 nM) [%] | cell viability ([2]; 1 nM) [%] | cell viability ([2]; 10 nM) [%] | cell viability ([2]; 100 nM) [%] | cell viability ([2]; 1000 nM) [%] | cell viability ([2]; 10000 nM) [%] | cell viability ([3]; 1 nM) [%] | cell viability ([3]; 10 nM) [%] | cell viability ([3]; 100 nM) [%] | cell viability ([3]; 1000 nM) [%] | cell viability ([3]; 10000 nM) [%] | cell viability ([4]; 1 nM) [%] | cell viability ([4]; 10 nM) [%] | cell viability ([4]; 100 nM) [%] | cell viability ([4]; 1000 nM) [%] | cell viability ([4]; 10000 nM) [%] | cell viability ([5]; 1 nM) [%] | cell viability ([5]; 10 nM) [%] | cell viability ([5]; 100 nM) [%] | cell viability ([5]; 1000 nM) [%] | cell viability ([5]; 10000 nM) [%] | relative viability EC50 [6] [µM] | relative viability EC50 [7] [µM] | relative viability EC50 [8] [µM] | relative viability EC50 [9] [µM] | relative viability EC50 [10] [µM] | drug sensitivity score [11] | drug sensitivity score [12] | drug sensitivity score [13] | drug sensitivity score [14] | drug sensitivity score [15]
CC(C)c1cc(-c2ccc(F)c3ccccc23)nc(N)n1 | 90.7 | 101 | 102 | 92.7 | 101 | 80.3 | 103 | 99.7 | 107 | 108 | 103 | 119 | 99.2 | 99.3 | 113 | 93.1 | 96.6 | 98.7 | 97.9 | 100 | 94.1 | 98.6 | 98.8 | 102 | 107 | > 10 | > 10 | > 10 | > 10 | > 10 | 0 | 0 | 0 | 0 | 0
Nc1ncnc2c1c(-c1cnc3[nH]ccc3c1)nn2C1CCCC1 [PP-121] | 105 | 100 | 90.5 | 43.6 | 13.1 | 98 | 100 | 85.7 | 33.4 | 15.3 | 121 | 106 | 104 | 58.3 | 11.4 | 104 | 98.5 | 97 | 48 | 1.6 | 99.5 | 104 | 102 | 73.7 | 9.3 | 0.596 | 0.355 | 1.05 | 0.933 | 1.43 | 12.1 | 14.2 | 10.2 | 11.6 | 8.9
Cn1c2cc([S+](C)[O-])sc2c2cnn(Cc3cccc(N)c3)c(=O)c21 (stereo not given) [TEPP-46] | 98.7 | 98.3 | 92.7 | 98.1 | 89 | 104 | 97.6 | 96.7 | 94.7 | 94.7 | 119 | 103 | 111 | 98.5 | 102 | 98.3 | 97.1 | 97.8 | 100 | 98.7 | 103 | 97.4 | 106 | 96.3 | 91.9 | > 10 | > 10 | > 10 | > 10 | > 10 | 0 | 0 | 0 | 0 | 0
CS(=O)(=O)N1CCc2c(-c3cnc(N)nc3)nc(N3CCOCC3)nc21 | 93.3 | 97.6 | 96.9 | 72 | 33.3 | 94.2 | 96.3 | 98.2 | 70.5 | 29.3 | 111 | 101 | 95.3 | 72.6 | 33.3 | 99.5 | 97.5 | 99.9 | 92 | 47.1 | 104 | 108 | 95.3 | 87.4 | 41.7 | 1.19 | 1.17 | 1.22 | 1.98 | 1.67 | 7 | 7.6 | 6.9 | 4.2 | 5.2
CC(C)NCC(O)COc1cccc2[nH]c3ccccc3c12 (stereo not given) [carazolol] | 97.4 | 89.7 | 104 | 98.1 | 105 | 102 | 101 | 90.9 | 95.7 | 106 | 85.6 | 99 | 98.6 | 101 | 104 | 103 | 96.3 | 102 | 97.8 | 99.7 | 98 | 99.1 | 90.1 | 100 | 99.3 | > 10 | > 10 | > 10 | > 10 | > 10 | 0 | 0 | 0 | 0 | 0
COc1ccc(S(=O)(=O)Nc2cc(Cl)cc(Cl)c2OC)cc1N1CCNCC1 | 102 | 97.9 | 97.9 | 92.9 | 94.7 | 99 | 103 | 99.2 | 106 | 111 | 98.9 | 90.2 | 103 | 98.7 | 102 | 109 | 98 | 105 | 96.3 | 100 | 102 | 103 | 99.1 | 98.7 | 91.2 | > 10 | > 10 | > 10 | > 10 | > 10 | 0 | 0 | 0 | 0 | 0
CCCCCCCCCCCCCCCC(=O)OC(C)C [isopropyl-palmitate] | 101 | 102 | 109 | 90.8 | 90.4 | 106 | 96.6 | 94.3 | 93.8 | 101 | 92.2 | 102 | 99 | 94.8 | 95.8 | 102 | 95.9 | 97.5 | 93.2 | 97.7 | 96 | 98.8 | 99 | 98.8 | 97.2 | > 10 | > 10 | > 10 | > 10 | > 10 | 0 | 0 | 0 | 0 | 0
N#C/C(=C\c1ccc(O)c(O)c1)C(=O)OCCc1cccs1 [2-TEDC] | 96.3 | 102 | 91.8 | 101 | 99.3 | 91.1 | 94.2 | 96.1 | 99.4 | 93.9 | 93.8 | 96.1 | 104 | 86 | 91.3 | 98.6 | 101 | 96.1 | 99.2 | 95.2 | 98.5 | 97.9 | 96.7 | 93.6 | 102 | > 10 | > 10 | > 10 | > 10 | > 10 | 0 | 0 | 1 | 0 | 0
CO/N=C1\CN(c2nc3c(cc2F)c(=O)c(C(=O)O)cn3C2CC2)CC1CN (stereo not given) [gemifloxacin] | 92.2 | 114 | 105 | 96.9 | 95.9 | 99.6 | 98.5 | 98.4 | 98.5 | 105 | 105 | 108 | 105 | 100 | 86.8 | 97 | 102 | 97.3 | 100 | 94.3 | 103 | 102 | 102 | 102 | 95.7 | > 10 | > 10 | > 10 | > 10 | > 10 | 0 | 0 | 0.1 | 0 | 0
N[C@H]1C(O)O[C@H](CO)[C@@H](O)[C@@H]1O (mixture of isomers) [glucosamine] | 88.8 | 91.8 | 95 | 96.6 | 100 | 101 | 107 | 97.2 | 101 | 105 | 112 | 106 | 109 | 100 | 112 | 97.6 | 99.9 | 94.2 | 96.4 | 95.7 | 108 | 103 | 101 | 97.7 | 105 | > 10 | > 10 | > 10 | > 10 | > 10 | 0 | 0 | 0 | 0 | 0
Cc1c(C(=O)NCc2cccnc2)nn(-c2ccc(Cl)cc2Cl)c1-c1ccc(Cl)cc1 [MJ-15] | 88 | 87.7 | 92.2 | 84.3 | 79.1 | 90.5 | 86.7 | 103 | 90.4 | 97 | 91.8 | 111 | 96.2 | 101 | 98.8 | 99.2 | 96.5 | 102 | 88.8 | 95.3 | 92.5 | 96.4 | 94.8 | 90.2 | 99.2 | > 10 | > 10 | > 10 | > 10 | > 10 | 0 | 0 | 0 | 0 | 0
Nc1nccc(/C=C/c2ccccc2)n1 [TCN238] | 89.6 | 98 | 89.2 | 100 | 83.2 | 98.7 | 97.9 | 99.4 | 102 | 103 | 110 | 92.9 | 112 | 97.3 | 105 | 96 | 99.9 | 97.6 | 103 | 97.5 | 104 | 98.6 | 101 | 97.7 | 103 | > 10 | > 10 | > 10 | > 10 | > 10 | 0.4 | 0 | 0 | 0 | 0
CNCc1cc(-c2ccccc2F)n(S(=O)(=O)c2cccnc2)c1 [vonoprazan] | 97.5 | 100 | 102 | 100 | 96.4 | 99.8 | 96.7 | 94.9 | 96.6 | 105 | 101 | 93.6 | 100 | 94.3 | 107 | 95.4 | 100 | 98.1 | 102 | 94.4 | 103 | 99.4 | 97.9 | 99.7 | 98.9 | > 10 | > 10 | > 10 | > 10 | > 10 | 0 | 0 | 0 | 0 | 0
COc1ccc(C(=O)NCc2cccnc2)cc1C(=O)NCc1cccnc1 [picotamide] | 101 | 87.9 | 87 | 120 | 98.6 | 97.3 | 97.8 | 103 | 102 | 111 | 102 | 99.5 | 120 | 119 | 97 | 97.9 | 95 | 92.8 | 101 | 105 | 99.7 | 101 | 109 | 98.7 | 103 | > 10 | > 10 | > 10 | > 10 | > 10 | 0 | 0 | 0 | 0 | 0
